{"source": "patent US6372897B1", "about": "“Mimotopic polypeptides of toxoplasma gondii and applications” (priority 1995, dated 2002)", "molecules": {"B1": {"name": "P30 protein: the Toxoplasma gondii major antigen, peptide sequence identified by SEQ ID No.1 (protein)", "chain": "MSVSLHHFIISSGFLTSMFPKAVRRAVTAGVFAAPTLMSFLRCGVMASDPPLVANQVVTCPDKKSTAAVILTPTENHFTLKCPKTALTEPPTLAYSPNRQICPAGTTSSCTSKAVTLSSLIPEAEDSWWTGDSASLDTAGIKLTVPIEKFPVTTQTFVVGCIKGDDAQSCMVTVTVQARASSVVNNVARCSYGADSTLGPVKLSAEGPTTMTLVCGKDGVKVPQDNNQYCSGTTLTGCNEKSFKDILPKLTENPWQGNASSDKGATLTINKEAFPAESKSVIIGCTGGSPEKHHCTVKLEFAGAAGSAKSSAGTASHVSIFAMVTGLIGSIAACVA"}}, "key": {"[1]": {"biological_target": "phage clone displaying the pentadecapeptide Trp-His-Trp-Arg-His-Arg-Ile-Pro-Leu-Gln-Leu-Ala-Ala-Gly-Arg (SEQ ID No.48) fused in the PIII protein (filamentous phage)", "assay": "phage ELISA, phages captured by anti-M13 antibodies, 1E1E7 at 3 nM"}, "[2]": {"biological_target": "T1, phage clone identified (SEQ ID No.48) (Enterobacteria phage fd, UniProt P03661)", "T1 construct": "made in house; host or cells: E. coli (K19Kan), phage amplification", "assay": "ELISA: inhibition by human serum of the attachment of monoclonal antibody 1E1E7 to the phage clone", "format": "binding", "conditions": "phages containing the sequence", "protocol": "The ELISA test was carried out as described in Example 2 with the following modifications: 100 μl of various dilutions of human serum of a patient infected with Toxoplasma gondii (positive serum—reference G8) are brought into contact with the. phage clone identified, immobilized as described in Example 2, for 30 minutes at 37° C. After two washes with TBS/Tween 0.05%, 100 μl of monoclonal antibody 1E1E7 at the concentration of 6 nM are added and incubated overnight at 4° C. After four washes with TBS/Tween, 100 μl of anti-mouse conjugate labeled with peroxidase are added and then incubated for one hour at 37° C. The enzymatic reaction for visualization was carried out by adding 100 μl of an H2O2/orthophenylenediamine (OPD) solution and incubating the sample for 30 minutes at room temperature. The staining reaction is stopped by adding 50 μl of 1.8N sulfuric acid. The optical density is measured on a BioMé rieux plate reader at 492 nm. Moreover, a control was produced, under the same reaction conditions but with a human serum not infected with Toxoplasma gondii (negative serum), in order to ensure that the phage clone identified reacts specifically with the human serum of a patient infected with Toxoplasma gondii."}, "[3]": {"system": "anti-P30 monoclonal antibody 1E1E7", "assay": "Spotscan overlapping pentadecapeptides on cellulose membrane, immunoreactivity with 1E1E7", "format": "binding, mouse", "conditions": "1E1E7 60 nM", "protocol": "According to the “Spotscan” technique, the synthesis of the peptides is carried out on cellulose membranes (Cambridge Research Biochemicals). The principle of the method is the same as that for Pepscan. The esterified amino acids are solubilized in N-methylpyrrolidone (NMP) at the concentration of […] and 0.9 μl are deposited at the level of spots for the deposition of bromophenol blue. After a 15 minute incubation, another deposition of amino acids is carried out followed by another 15 minute incubation. If the coupling between the two amino acids is carried out correctly, a change in color is observed (passage from blue to yellowish green). After three washes in DMF, an acetylation step is carried out with acetic anhydride. Then the terminal amino groups of the peptides being synthesized are deprotected with 20% piperidine in DMF. The deposition spots are restained with a 1% bromophenol blue solution in DMF, washed three times with methanol and dried. These operations as a whole constitute a cycle for addition of an amino acid and this cycle is repeated up to the end of the synthesis. When all the amino acids have been added, the NH2-terminal group of the last amino acid is deprotected with 20% piperidine in DMF and is acetylated with acetic anhydride. The side chain protecting groups are removed by a dichloromethane:trifluoroacetic acid:triisobutylsilane mixture (5 ml:5 ml:250 μl). The immunoreactivity of the peptides thus synthesized can then be tested by ELISA.\nIn order to reproduce the entire pentadecapeptide included in the phage clone isolated and to determine the possible role of the contiguous amino acids belonging to the sequence of the PIII protein of the phage (see Example 1), the chemical synthesis of overlapping pentadecapeptides, which cover the sequence […](SEQ ID No.59), was carried out on an activated cellulose membrane (“Spotscan”).\nAfter synthesis of the various pentadecapeptides, the membrane is rinsed with methanol, washed in TBS (0.1M Tris, pH 7.2) and then incubated overnight at room temperature in saturation buffer (marketed by Cambridge Research Biochemicals). After several washes with TBS-T (0.1M Tris, pH 7.2-0.05% Tween 20), the membrane is brought into contact with a solution of anti-P30 monoclonal antibody 1E1E7 (60 nM) and incubated for 4 hours at room temperature. After three washes with TBS-T, the anti-mouse immunoglobulin conjugate labeled with galactosidase (marketed by Cambridge Research Biochemicals) is added at a 1/200 dilution and the whole is incubated for two hours at room temperature. After several washes of the membrane with PBS-Tween 0.05% and PBS, the immunoreactivity at the level of the various spots is visualized by adding a solution of substrate (5-bromo-4-chloro-3-indoyl-D-galactopyranoside in PBS containing magnesium chloride and potassium ferricyanide) and incubating for 10 to 40 minutes. The color of the spots is assessed qualitatively."}, "[4]": {"system": "anti-P30 monoclonal antibody 1E1E7", "assay": "Competition ELISA: inhibition by native P30 protein of the ELISA response of the phage clone", "format": "binding, mouse", "conditions": "phage clone SEQ ID No.48", "protocol": "A competition ELISA test was carried out in order to determine if the response obtained with the phage clone identified is inhibited by pre-incubation of the anti-P30 monoclonal antibody 1E1E7 with the P30 protein.\nThe ELISA test is carried out as described in Example 2 with the following modifications: the monoclonal antibody 1E1E7 (at the concentration of 6 nM) is preincubated with various concentrations of P30 protein for 20 minutes at 37° C. and then the mixture is added to the wells of the ELISA plate in which the phages corresponding to the pentadecapeptide Trp-His-Trp-Arg-His-Arg-Ile-Pro-Leu-Gln-Leu-Ala-Ala-Gly-Arg (SEQ ID No.48) are attached."}}, "note": "Ends that are not written are not given here."}
{"molecule": "anti-P30 monoclonal antibody 1E1E7 (BioMerieux)", "values": [{"measurement": "OD (492 nm)", "setting": "[1]", "value": "0.269 to 0.274", "unit": "OD 492 nm"}]}
{"molecule": "WHWRHRIPLQLAAGR [SEQ ID No.48]", "values": [{"measurement": "Recognition by the antibodies present in the sera of patients infected with Toxoplasma gondii", "setting": "[2]", "value": "indeed recognized"}]}
{"molecule": "PLQLAAGRGAAGAET [SEQ ID No.34]", "values": [{"measurement": "Color of the spots (immunoreactivity), assessed qualitatively", "setting": "[3]", "value": "disappears completely"}]}
{"molecule": "SADGAWHWRHRIPLQ [SEQ ID No.231]", "values": [{"measurement": "Color of the spots (immunoreactivity), assessed qualitatively", "setting": "[3]", "value": "a first color"}]}
{"molecule": "RIPLQLAAGRGAAGA [SEQ ID No.32]", "values": [{"measurement": "Color of the spots (immunoreactivity), assessed qualitatively", "setting": "[3]", "value": "maximum"}]}
{"molecule": "HRIPLQLAAGRGAAG [SEQ ID No.9]", "values": [{"measurement": "Color of the spots (immunoreactivity), assessed qualitatively", "setting": "[3]", "value": "maximum"}]}
{"molecule": "IPLQLAAGRGAAGAE [SEQ ID No.33]", "values": [{"measurement": "Color of the spots (immunoreactivity), assessed qualitatively", "setting": "[3]", "value": "very slight color"}]}
{"molecule": "B1", "values": [{"measurement": "Inhibition of the ELISA response", "setting": "[4]; P30 protein 35 ng/ml preincubated with 6 nM 1E1E7", "value": 45, "unit": "%"}, {"measurement": "Inhibition of the ELISA response", "setting": "[4]; P30 protein 3.5 μg/ml preincubated with 6 nM 1E1E7", "value": 80, "unit": "%"}]}
